According to patent US10669235B2, “Indole derivatives and their use as protein kinase inhibitors” (RESPIVERT LIMITED, priority 2016, dated 2020):
Structures can show the parent of a compound that is named as a salt. Where two headings read alike, the source gives them in different places.

Columns and labels:
[1] = molecular target: T1, PDGFRβ (Homo sapiens (Human), UniProt P09619); test: PDGFRβ enzyme inhibition (ADP-Glo assay); format: biochemical; settings: mean, n = 2 (nintedanib n = 34)
[2] = molecular target: T1, PDGFRβ; test: PDGF-BB induced phosphorylation of PDGFRβ in fibroblasts (MRC5, HTRF); format: cell-based
[3] = PAMPA permeability assay; format: in vitro ADME; settings: for Papp at 5 h, 10 µM: pH 7, 10 μM
[4] = Pharmacokinetic measurements in rats (i.v., i.t., oral); format: in vivo; settings: rat; for concentration at 0.1 h / concentration at 1.5 h / concentration at 6 h / concentration at 24 h: lung; for concentration at 0.1 h: read-out: lung concentration (nM) at time 0.1 h; for concentration at 1.5 h: read-out: lung concentration (nM) at time 1.5 h; for concentration at 6 h: read-out: lung concentration (nM) at time 6 h; for concentration at 24 h: read-out: lung concentration (nM) at time 24 h; for Kp at 0.1 h / Kp at 1.5 h / Kp at 6 h / Kp at 24 h: lung/plasma
[5] = tested on: MRC5 cells; test: Cell viability assay in MRC5 cells (MTT)
[6] = MRC5 cells, PDGFBB stimulation, read-out: PDGFBB-induced PDGFRβ phosphorylation in MRC5 cells (IC50)
[7] = male, CD, other: intra-tracheal
[8] = male, CD, iv, read-out: lung/plasma ratio at time 0.1 h
[9] = male, CD, iv, read-out: lung/plasma ratio at time 1.5 h
[10] = male, CD, iv, read-out: lung/plasma ratio at time 6 h
[11] = male, CD, iv, read-out: lung/plasma ratio at time 24 h
[12] = male, CD, other: intra-tracheal, read-out: lung/plasma conc ratio at time 0.1 h
[13] = i.t. dose 0.1 (nintedanib 0.42)
[14] = i.t. dose 0.1 (nintedanib 0.42), 1.5 h
[15] = i.t. dose 0.1 (nintedanib 0.42), 6 h
[16] = i.t. dose 0.1 (nintedanib 0.42), 24 h
[17] = i.v. dose 0.1 (nintedanib 0.42)
[18] = i.v. dose 0.1 (nintedanib 0.42), 1.5 h
[19] = i.v. dose 0.1 (nintedanib 0.42), 6 h
[20] = i.v. dose 0.1 (nintedanib 0.42), 24 h

T1 sequence (P09619 33-1106): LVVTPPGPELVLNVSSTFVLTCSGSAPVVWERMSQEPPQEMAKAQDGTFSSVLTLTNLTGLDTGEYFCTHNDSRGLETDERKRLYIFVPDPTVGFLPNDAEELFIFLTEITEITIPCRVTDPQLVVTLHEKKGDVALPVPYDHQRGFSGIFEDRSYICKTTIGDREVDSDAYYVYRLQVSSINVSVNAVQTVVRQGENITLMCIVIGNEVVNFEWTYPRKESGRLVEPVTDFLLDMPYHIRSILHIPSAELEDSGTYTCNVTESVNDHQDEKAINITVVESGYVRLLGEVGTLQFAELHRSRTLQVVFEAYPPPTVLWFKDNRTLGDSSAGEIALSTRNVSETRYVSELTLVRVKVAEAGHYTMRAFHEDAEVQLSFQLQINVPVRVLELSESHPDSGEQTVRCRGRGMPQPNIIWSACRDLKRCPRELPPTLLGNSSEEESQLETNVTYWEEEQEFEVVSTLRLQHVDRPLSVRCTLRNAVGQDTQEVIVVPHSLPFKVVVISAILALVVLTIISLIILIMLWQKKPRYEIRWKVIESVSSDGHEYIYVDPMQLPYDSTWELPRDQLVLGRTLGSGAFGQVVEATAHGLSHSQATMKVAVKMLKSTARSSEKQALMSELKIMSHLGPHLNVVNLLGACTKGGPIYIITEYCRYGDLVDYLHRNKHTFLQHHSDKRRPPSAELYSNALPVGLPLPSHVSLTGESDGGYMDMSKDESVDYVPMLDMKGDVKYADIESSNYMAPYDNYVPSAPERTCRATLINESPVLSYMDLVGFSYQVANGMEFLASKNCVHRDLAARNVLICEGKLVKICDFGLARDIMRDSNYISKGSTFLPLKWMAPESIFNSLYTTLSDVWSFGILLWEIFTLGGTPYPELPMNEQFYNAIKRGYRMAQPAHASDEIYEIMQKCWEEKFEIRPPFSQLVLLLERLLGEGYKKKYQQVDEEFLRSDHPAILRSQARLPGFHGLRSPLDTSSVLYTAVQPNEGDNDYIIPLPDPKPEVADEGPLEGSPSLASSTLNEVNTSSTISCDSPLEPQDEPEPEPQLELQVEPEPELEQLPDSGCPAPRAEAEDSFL

In the case of `COC(=O)c1cc2c(cc1C)/C(=C(/Nc1ccc(C(=O)NCC3CCN(C)CC3)cc1)c1ccccc1)C(=O)N2` [Example 3, (Z)-Methyl 5-methyl-3-(((4-(((1-methylpiperidin-4-yl)methyl)carbamoyl)phenyl)amino)(phenyl)methylene)-2-oxoindoline-6-carboxylate, formate], the Ki [1] is reported as 6.86 nM, the IC50 [2, 6] is reported as 12.7 nM and the recovery at 5 hr, 10 μM ([3]; pH 7, PAMPA) is reported as 92.4%. For the same molecule, the Papp at 5 h, 10 µM ([3]; pH 7, PAMPA) was 0.00775 ×10⁻⁶ cm/s, the concentration at 0.1 h ([4]; male, CD, iv) was 761 nM and the concentration at 1.5 h ([4]; male, CD, iv) was 700 nM. For the same molecule, the concentration at 6 h ([4]; male, CD, iv) was 321 nM, the concentration at 24 h ([4]; male, CD, iv) was 135 nM and the concentration at 0.1 h [4, 7] was 2600 nM. It also gave a concentration at 1.5 h [4, 7] of 4990 nM, a concentration at 6 h [4, 7] of 4680 nM and a concentration at 24 h [4, 7] of 1860 nM. The Kp at 0.1 h [4, 8] was 38, the Kp at 1.5 h [4, 9] was 154 and the Kp at 6 h [4, 10] was 120. For the same molecule, the Kp at 24 h [4, 11] was > 72, the Kp at 0.1 h [4, 12] was 100 and the Kp at 1.5 h ([4]; male, CD, other: intra-tracheal, read-out: lung/plasma conc ratio at time 1.5 h) was 1910. The Kp at 6 h ([4]; male, CD, other: intra-tracheal, read-out: lung/plasma conc ratio at time 6 h) was 2150, the Kp at 24 h ([4]; male, CD, other: intra-tracheal, read-out: lung/plasma conc ratio at time 24 h) was > 1000 and the “Lung conc i.t./i.v. Ratio at time 0.1 h” value [4] was 3. For the same molecule, the “Lung conc i.t./i.v. Ratio at time 1.5 h” value ([4]; 1.5 h) was 7, the “Lung conc i.t./i.v. Ratio at time 6 h” value ([4]; 6 h) was 15 and the “Lung conc i.t./i.v. Ratio at time 24 h” value ([4]; 24 h) was 14. For the same molecule, the “BAL % administered dose at time 0.1 h” value [4, 13] was 14%, the “BAL % administered dose at time 1.5 h” value [4, 14] was 1.2% and the “BAL % administered dose at time 6 h” value [4, 15] was 0.7%. For the same molecule, the “BAL % administered dose at time 24 h” value [4, 16] was 0.3%, the “BAL % administered dose at time 0.1 h” value [4, 17] was 0.1% and the “BAL % administered dose at time 1.5 h” value [4, 18] was 0.1%. For the same molecule, the “BAL % administered dose at time 6 h” value [4, 19] was 0.03%, the “BAL % administered dose at time 24 h” value [4, 20] was 0.02% and the “Cell viability at 100 nM (%)” value [5] was 88%. For the same molecule, the “Cell viability at 300 nM (%)” value [5] was 86.1% and the “Cell viability at 1000 nM (%)” value [5] was 79.5%.
With `COC(=O)c1cc2c(cc1C)/C(=C(/Nc1ccc(C(=O)NCCN3CCNC(=O)C3)cc1)c1ccccc1)C(=O)N2` [Example 9, (Z)-Methyl 5-methyl-2-oxo-3-(((4-((2-(3-oxopiperazin-1-yl)ethyl)carbamoyl)phenyl)amino) (phenyl)methylene)indoline-6-carboxylate] the Ki [1] was 7.89 nM, the IC50 [2, 6] was 14.2 nM and the recovery at 5 hr, 10 μM ([3]; pH 7, PAMPA) was 72.7%. The Papp at 5 h, 10 µM ([3]; pH 7, PAMPA) was 0.0146 ×10⁻⁶ cm/s, the concentration at 0.1 h ([4]; male, CD, iv) was 494 nM and the concentration at 1.5 h ([4]; male, CD, iv) was 174 nM. For the same molecule, the concentration at 6 h ([4]; male, CD, iv) was 235 nM, the concentration at 24 h ([4]; male, CD, iv) was 502 nM and the concentration at 0.1 h [4, 7] was 5700 nM. It also gave a concentration at 1.5 h [4, 7] of 8810 nM, a concentration at 6 h [4, 7] of 10500 nM and a concentration at 24 h [4, 7] of 10500 nM. The Kp at 0.1 h [4, 8] was 17, the Kp at 1.5 h [4, 9] was 55 and the Kp at 6 h [4, 10] was > 326. For the same molecule, the Kp at 24 h [4, 11] was > 697, the Kp at 0.1 h [4, 12] was > 7890 and the MRT ([4]; male, CD, plasma, iv) was 1.1 h. It also gave a clearance ([4]; male, CD, plasma, iv) of 90 mL/min/kg, a half-life ([4]; male, CD, plasma, iv) of 1.1 h and a Vd ([4]; male, CD, plasma, iv, read-out: Vss) of 7 L/kg. The “Lung conc i.t./i.v. Ratio at time 0.1 h” value [4] was 12, the “Lung conc i.t./i.v. Ratio at time 1.5 h” value ([4]; 1.5 h) was 51 and the “Lung conc i.t./i.v. Ratio at time 6 h” value ([4]; 6 h) was 45. For the same molecule, the “Lung conc i.t./i.v. Ratio at time 24 h” value ([4]; 24 h) was 21, the “i.t. BAV (%)” value [4, 13] was <40% and the “BAL % administered dose at time 0.1 h” value [4, 13] was 13.7%. For the same molecule, the “BAL % administered dose at time 1.5 h” value [4, 14] was 5.2%, the “lung/plasma conc ratio at time 1.5 h” value [4, 14] was >12197 and the “BAL % administered dose at time 6 h” value [4, 15] was 2.3%. The “lung/plasma conc ratio at time 6 h” value [4, 15] was >14485, the “BAL % administered dose at time 24 h” value [4, 16] was 0.5% and the “lung/plasma conc ratio at time 24 h” value [4, 16] was >14483. For the same molecule, the “BAL % administered dose at time 0.1 h” value [4, 17] was “BQL”, the “BAL % administered dose at time 1.5 h” value [4, 18] was “BQL” and the “BAL % administered dose at time 6 h” value [4, 19] was “BQL”. The “BAL % administered dose at time 24 h” value [4, 20] was “BQL”, the “Oral BAV (%)” value ([4]; oral dose 3 mg/kg) was <2% and the “Cell viability at 100 nM (%)” value [5] was 102%. The “Cell viability at 300 nM (%)” value [5] was 103.6% and the “Cell viability at 1000 nM (%)” value [5] was 97.5%.
With `COC(=O)c1cc2c(cc1C)/C(=C(/Nc1ccc(C(=O)NC3CCN(C)CC3)cc1)c1ccccc1)C(=O)N2` [Example 18, (Z)-Methyl-5-methyl-3-(((4-((1-methylpiperidin-4-yl)carbamoyl)phenyl)amino)(phenyl)methylene)-2-oxoindoline-6-carboxylate, formate] the Ki [1] was 7.99 nM, the IC50 [2] was 16.8 nM and the recovery at 5 hr, 10 μM ([3]; pH 7) was 84.5%. The Papp at 5 h, 10 µM [3] was 0.00383 ×10⁻⁶ cm/s, the concentration at 0.1 h ([4]; male, CD, iv) was 638 nM and the concentration at 1.5 h ([4]; male, CD, iv) was 306 nM. For the same molecule, the concentration at 6 h ([4]; male, CD, iv) was 201 nM, the concentration at 0.1 h [4, 7] was 6530 nM and the concentration at 1.5 h [4, 7] was 5990 nM. For the same molecule, the concentration at 6 h [4, 7] was 2350 nM, the concentration at 24 h [4, 7] was 4520 nM and the half-life ([4]; male, CD, plasma, iv) was 5.1 h. For the same molecule, the “i.t. BAV (%)” value [4, 13] was 39%, the “BAL % administered dose at time 0.1 h” value [4, 13] was 6.7% and the “BAL % administered dose at time 1.5 h” value [4, 14] was 2.2%. The “BAL % administered dose at time 6 h” value [4, 15] was 0.4%, the “BAL % administered dose at time 24 h” value [4, 16] was 0.3% and the “BAL % administered dose at time 0.1 h” value [4, 17] was 0.13%. The “BAL % administered dose at time 1.5 h” value [4, 18] was 0%, the “BAL % administered dose at time 6 h” value [4, 19] was “BQL” and the “BAL % administered dose at time 24 h” value [4, 20] was “BQL”. For the same molecule, the “Cell viability at 100 nM (%)” value [5] was 98.2%, the “Cell viability at 300 nM (%)” value [5] was 97.3% and the “Cell viability at 1000 nM (%)” value [5] was 91.8%.
